Results: US20160002248A1, “GLS1 INHIBITORS FOR TREATING DISEASE” (Board of Regents, The University of Texas System, priority 2014, published 2016)

Tests used:
[1] = target: T1, purified recombinant human GAC (GLS1) (Homo sapiens, UniProt O94925); assay: GLS1 Enzymatic Activity Assay (dual-coupled enzymatic assay); type: biochemical
T1 sequence (O94925 55-598 isoform O94925-3 limits assumed): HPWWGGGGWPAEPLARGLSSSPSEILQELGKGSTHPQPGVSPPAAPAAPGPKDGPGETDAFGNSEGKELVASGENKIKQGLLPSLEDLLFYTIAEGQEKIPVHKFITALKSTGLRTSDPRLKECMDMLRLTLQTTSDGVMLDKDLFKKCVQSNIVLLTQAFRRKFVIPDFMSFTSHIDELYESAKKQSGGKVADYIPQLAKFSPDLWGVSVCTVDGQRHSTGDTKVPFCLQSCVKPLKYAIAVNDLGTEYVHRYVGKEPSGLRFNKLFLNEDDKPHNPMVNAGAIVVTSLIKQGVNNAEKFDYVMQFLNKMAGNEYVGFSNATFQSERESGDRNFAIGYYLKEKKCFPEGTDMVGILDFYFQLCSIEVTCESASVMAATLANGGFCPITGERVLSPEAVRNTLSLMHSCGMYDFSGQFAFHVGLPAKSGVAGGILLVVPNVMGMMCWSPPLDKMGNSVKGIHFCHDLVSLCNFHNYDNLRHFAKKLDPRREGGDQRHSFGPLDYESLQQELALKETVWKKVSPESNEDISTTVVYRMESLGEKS
In short: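 In this coupled fluorometric format, phosphate-activated GAC (2 nM, 50 mM phosphate) is pre-exposed to compound for 10 min before 1 mM glutamine addition. Product is tracked as resorufin (530/590 nm) over time or at 20 min, and potency is derived by logistic fitting.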

[2] = system: A549 cells; assay: Proliferation Assay (A549 cell viability, Cell Titer Fluor); type: cell-based; settings: Homo sapiens, 72 hours
In short: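 A549 cells seeded at 1000 cells/well, left 24 h, then exposed to compound for 72 h at 37 °C, 5% CO2, final DMSO 0.5% (v/v). Viability read by Cell Titer Fluor fluorescence; EC50 from four-parameter logistic fit.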

Row | Structure (SMILES) | IC50 [1] | EC50 [2]
1 | O=C(NCc1ccc(CF)nc1)c1cn(CCCCc2cc3c(C4CC4)c(C4CC4)[nH]c3nn2)nn1 [Example 214, 1-(4-{5,6-dicyclopropyl-7H-pyrrolo[2,3-c]pyridazin-3-yl}butyl)-N-{[6-(fluoromethyl)pyridin-3-yl]methyl}-1H-1,2,3-triazole-4-carboxamide] | < 100 nM | 100 to 500 nM
2 | Cc1ccc(CNC(=O)c2cn(CCCCc3cc4cc(-c5ccccc5C(F)(F)F)[nH]c4nn3)nn2)cn1 [Example 215, N-[(6-methylpyridin-3-yl)methyl]-1-(4-{6-[2-(trifluoromethyl)phenyl]-7H-pyrrolo[2,3-c]pyridazin-3-yl}butyl)-1H-1,2,3-triazole-4-carboxamide] | < 100 nM | 100 to 500 nM
3 | O=C(NCc1cc(C(F)(F)F)ccn1)c1cn(CCCCc2cc3c(C4CC4)c(C4CCCC4)[nH]c3nn2)nn1 [Example 216, 1-(4-{6-cyclopentyl-5-cyclopropyl-7H-pyrrolo[2,3-c]pyridazin-3-yl}butyl)-N-{[4-(trifluoromethyl)pyridin-2-yl]methyl}-1H-1,2,3-triazole-4-carboxamide] | < 100 nM | 100 to 500 nM
4 | O=C(NCc1ccc(C(F)(F)F)nc1)c1cn(CCCCc2cc3c(-c4ccc(F)cc4F)c(C4CC4)[nH]c3nn2)nn1 [Example 217, 1-(4-(6-cyclopropyl-5-(2,4-difluorophenyl)-7H-pyrrolo[2,3-c]pyridazin-3-yl)butyl)-N-((6-(trifluoromethyl)pyridin-3-yl)methyl)-1H-1,2,3-triazole-4-carboxamide] | < 100 nM | 100 to 500 nM

Now from value to compound:

Row | IC50 [1] | EC50 [2] | Structure (SMILES)
5 | < 100 nM | 100 to 500 nM | O=C(NCc1ccc(C(F)(F)F)cn1)c1cn(CCCCc2cc3c(C4CC4)c(C4CC4)[nH]c3nn2)nn1 [Example 208, 1-(4-{5,6-dicyclopropyl-7H-pyrrolo[2,3-c]pyridazin-3-yl}butyl)-N-{[5-(trifluoromethyl)pyridin-2-yl]methyl}-1H-1,2,3-triazole-4-carboxamide]
6 | < 100 nM | 100 to 500 nM | Cc1ccc(CNC(=O)c2cn(CCCCc3cc4cc(-c5ccccc5)[nH]c4nn3)nn2)cn1 [Example 209, N-[(6-methylpyridin-3-yl)methyl]-1-(4-{6-phenyl-7H-pyrrolo[2,3-c]pyridazin-3-yl}butyl)-1H-1,2,3-triazole-4-carboxamide]
7 | < 100 nM | 100 to 500 nM | O=C(NCc1cc(C(F)(F)F)ccn1)c1cn(CCCCc2cc3c(C4CC4)c(C4CC4)[nH]c3nn2)nn1 [Example 210, 1-(4-{5,6-dicyclopropyl-7H-pyrrolo[2,3-c]pyridazin-3-yl}butyl)-N-{[4-(trifluoromethyl)pyridin-2-yl]methyl}-1H-1,2,3-triazole-4-carboxamide]
8 | < 100 nM | 100 to 500 nM | O=C(NCc1cccc(C(F)(F)F)n1)c1cn(CCCCc2cc3c(C4CC4)c(C4CC4)[nH]c3nn2)nn1 [Example 211, 1-(4-{5,6-dicyclopropyl-7H-pyrrolo[2,3-c]pyridazin-3-yl}butyl)-N-{[6-(trifluoromethyl)pyridin-2-yl]methyl}-1H-1,2,3-triazole-4-carboxamide]
9 | < 100 nM | 100 to 500 nM | O=C(NCc1cncc(C(F)(F)F)c1)c1cn(CCCCc2cc3c(C4CC4)c(C4CC4)[nH]c3nn2)nn1 [Example 212, 1-(4-{5,6-dicyclopropyl-7H-pyrrolo[2,3-c]pyridazin-3-yl}butyl)-N-{[5-(trifluoromethyl)pyridin-3-yl]methyl}-1H-1,2,3-triazole-4-carboxamide]
10 | < 100 nM | 100 to 500 nM | CC(C)(O)c1ccc(CNC(=O)c2cn(CCCCc3cc4c(C5CC5)c(C5CC5)[nH]c4nn3)nn2)cn1 [Example 213, 1-(4-{5,6-dicyclopropyl-7H-pyrrolo[2,3-c]pyridazin-3-yl}butyl)-N-{[6-(2-hydroxypropan-2-yl)pyridin-3-yl]methyl}-1H-1,2,3-triazole-4-carboxamide]
